Source: patent publication US20160129011A1, “BICYCLO 2,3-BENZODIAZEPINES AND SPIROCYCLICALLY SUBSTITUTED 2,3-BENZODIAZEPINES” (BAYER PHARMA AKTIENGESELLSCHAFT, priority 2013, published 2016)

Key:
BRD4 (BD1) = biological target: T1, BRD4 (BD1) (Homo sapiens, UniProt O60885); test: Binding assay BRD4/acetylated peptide H4 (TR-FRET protein-protein interaction assay); conditions: BRD4 (BD1) / acetylated histone H4 peptide
T1 construct: longer constructs also being possible, preferably amino acids 44-168; made in house; host or cells: E. coli
From the text: To assess the BRD4 binding strength of the substances described in this application, the ability thereof to inhibit the interaction between BRD4 (BD1) and acetylated histone H4 in a dose-dependent manner was quantified.
For this purpose, a time-resolved fluorescence resonance energy transfer (TR-FRET) assay was used, which measures the binding between N-terminally His6-tagged BRD4 (BD1) (amino acids 67-152, longer constructs also being possible, preferably amino acids 44-168) and a synthetic acetylated histone H4 (Ac—H4) peptide with sequence GRGK(Ac)GGK(Ac)GLGK(Ac)GGAK(Ac)RHGSGSK-biotin. The recombinant BRD4 protein produced in-house according to Filippakopoulos et al., Nature, 2010, 468:1119-1123 was expressed in E. coli and purified by means of (Ni-NTA) affinity and (Sephadex G-75) size exclusion chromatography. The Ac—H4 peptide can be purchased, for example, from Biosyntan (Berlin, Germany).
In the assay, typically 11 different concentrations of each substance (0.1 nM, 0.33 nM, 1.1 nM, 3.8 nM, 13 nM, 44 nM, 0.15 μM, 0.51 μM, 1.7 μM, 5.9 μM and 20 μM) were analysed as duplicates on the same microtitre plate. For this purpose, 100-fold concentrated solutions in DMSO were prepared by serial dilutions (1:3.4) of a 2 mM stock solution into a clear, 384-well microtitre plate (Greiner Bio-One, Frickenhausen, Germany). From this, 50 nl were transferred into a black test plate (Greiner Bio-One, Frickenhausen, Germany). The test was started by the addition of 2 μl of a 2.5-fold concentrated BRD4 solution (final concentration typically 10 nM in the 5 μl of reaction volume) in aqueous assay buffer [50 mM HEPES pH 7.5, 50 mM sodium chloride (NaCl), 0.25 mM CHAPS and 0.05% serum albumin (BSA)] to the substances in the test plate. This was followed by a 10-minute incubation step at 22° C. for the pre-equilibration of putative complexes between BRD4 and the substances.
The mixture was then incubated in the dark at 22° C. for one hour and then at 4° C. for at least 3 hours and for no longer than overnight. The formation of BRD4/Ac—H4 complexes was determined by the measurement of the resonance energy transfer from the streptavidin-Eu cryptate to the anti-6His-XL665 antibody present in the reaction. For this purpose, the fluorescence emission was measured at 620 nm and 665 nm after excitation at 330-350 nm in a TR-FRET measuring instrument, for example a Rubystar or Pherastar (both from BMG Lab Technologies, Offenburg, Germany) or a Viewlux (Perkin-Elmer). The ratio of the emissions at 665 nm and at […] was taken as an indicator of the amount of BRD4/Ac—H4 complexes formed.
The data (ratios) obtained were normalized, with 0% inhibition corresponding to the mean from the measurements for a set of controls (typically 32 data points) in which all the reagents were present. In these, in place of test substances, 50 nl of DMSO (100%) were used. Inhibition of 100% corresponded to the mean from the measurements for a set of controls (typically 32 data points) in which all the reagents except BRD4 were present. The IC50 was determined by regression analysis based on a 4-parameter equation (minimum, maximum, IC50, Hill; Y=max+(min−max)/(1+(X/IC50)^Hill)).

MOLM-13 cells = test: Cell proliferation assay (alamarBlue), MOLM-13; assay type: cell-based; conditions: Homo sapiens, MOLM-13; acute myeloid leukaemia cell line, 96 h incubation
Procedure: In accordance with the invention, the ability of the substances to inhibit cell proliferation was determined. Cell viability was determined by means of the alamarBlue® reagent (Invitrogen) in a Victor X3 Multilabel Reader (Perkin Elmer). The excitation wavelength was 530 nm and the emission wavelength […].
The MOLM-13 cells (DSMZ, ACC 554) were sown at a concentration of 4000 cells/well in 100 μl of growth medium (RPMI1640, 10% FCS) on 96-well microtitre plates.
The MDA-MB-231 cells (DSMZ, ACC 732) were sown at a concentration of 4000 cells/well in 100 μl of growth medium (DMEM/Ham's F12 medium, 10% FCS) on 96-well microtitre plates. After overnight incubation at 37° C., the fluorescence values (CI values) were determined. Then the plates were treated with various substance dilutions (1E-5 M, 3E-6 M, 1E-6 M, 3E-7 M, 1E-7 M, 3E-8 M, 1E-8 M) and incubated at 37° C. for 72 (MV4-11, LOX-IMVI cells), 96 (MOLM-13, B16F10, […] cells), 120 (MOLP-8, KMS-12-PE cells) or 168 (LAPC-4 cells) hours. Subsequently, the fluorescence values were determined (CO values). For the data analysis, the CI values were subtracted from the CO values and the results were compared between cells which had been treated with various dilutions of the substance or only with buffer solution. This was used to calculate the IC50 values (substance concentration required for 50% inhibition of cell proliferation).
The substances were examined in the cell lines of Table 1 which, in an exemplary manner, represent the stated indications: […]

| Structure (SMILES) | IC50 (BRD4 (BD1)) | IC50 (MOLM-13 cells) |
| --- | --- | --- |
| CNC(=O)N1N=C(c2ccc(N3CC4(CCS4(=O)=O)C3)cc2)c2cc(OC)c(OC)cc2CC1C (racemic) [Example 3, 1-[4-(1,1-dioxido-1-thia-6-azaspiro[3.3]hept-6-yl)phenyl]-7,8-dimethoxy-N,4-dimethyl-4,5-dihydro-3H-2,3-benzodiazepine-3-carboxamide] | 20 nM | 150 nM |
| CNC(=O)N1N=C(c2ccc(N3C[C@H]4CC[C@@H](C3)O4)cc2)c2cc(OC)c(OC)cc2CC1C (mixture of isomers) [Example 4, (±)-7,8-dimethoxy-N,4-dimethyl-1-[4-(8-oxa-3-azabicyclo[3.2.1]oct-3-yl)phenyl]-4,5-dihydro-3H-2,3-benzodiazepine-3-carboxamide] | 30 nM | 100 nM |
| CNC(=O)N1N=C(c2ccc(N3CC4(COC4)C3)cc2)c2cc(OC)c(OC)cc2CC1C (racemic) [Example 5, (±)-7,8-dimethoxy-N,4-dimethyl-1-[4-(2-oxa-6-azaspiro[3.3]hept-6-yl)phenyl]-4,5-dihydro-3H-2,3-benzodiazepine-3-carboxamide] | 20 nM | 210 nM |
| CNC(=O)N1N=C(c2ccc(N3[C@@H]4CC[C@H]3CC(=O)C4)cc2)c2cc(OC)c(OC)cc2CC1C (mixture of isomers) [Example 6, (±)-7,8-dimethoxy-N,4-dimethyl-1-[4-(3-oxo-8-azabicyclo[3.2.1]oct-8-yl)phenyl]-4,5-dihydro-3H-2,3-benzodiazepine-3-carboxamide] | 30 nM | 180 nM |
| CNC(=O)N1N=C(c2cccc(N3CC4CCC(C3)O4)c2)c2cc(OC)c(OC)cc2CC1C (racemic) [Example 13, (±)-7,8-dimethoxy-N,4-dimethyl-1-[3-(8-oxa-3-azabicyclo[3.2.1]oct-3-yl)phenyl]-4,5-dihydro-3H-2,3-benzodiazepine-3-carboxamide] | 90 nM | 560 nM |
| CNC(=O)N1N=C(c2ccc(-c3ccc4c(c3)OCCO4)cc2)c2cc(OC)c(OC)cc2CC1C (racemic) [Example 21, (±)-1-[4-(2,3-dihydro-1,4-benzodioxin-6-yl)phenyl]-7,8-dimethoxy-N,4-dimethyl-4,5-dihydro-3H-2,3-benzodiazepine-3-carboxamide] | 90 nM | 710 nM |
| CNC(=O)N1N=C(c2ccc(-c3ccc4c(c3)CCO4)cc2)c2cc(OC)c(OC)cc2CC1C (racemic) [Example 22, (±)-1-[4-(2,3-dihydro-1-benzofuran-5-yl)phenyl]-7,8-dimethoxy-N,4-dimethyl-4,5-dihydro-3H-2,3-benzodiazepine-3-carboxamide] | 50 nM | 550 nM |
| CNC(=O)N1N=C(c2ccc(-c3cccc4ncccc34)cc2)c2cc(OC)c(OC)cc2CC1C (racemic) [Example 23, (±)-1-[4-(quinolin-5-yl)phenyl]-7,8-dimethoxy-N,4-dimethyl-4,5-dihydro-3H-2,3-benzodiazepine-3-carboxamide] | 60 nM | 250 nM |
| CNC(=O)N1N=C(c2ccc(-c3ccnc4ccccc34)cc2)c2cc(OC)c(OC)cc2CC1C (racemic) [Example 24, (±)-1-[4-(quinolin-4-yl)phenyl]-7,8-dimethoxy-N,4-dimethyl-4,5-dihydro-3H-2,3-benzodiazepine-3-carboxamide] | 70 nM | 390 nM |
| CNC(=O)N1N=C(c2ccc(-c3ccc4c(ccn4C)c3)cc2)c2cc(OC)c(OC)cc2CC1C (racemic) [Example 25, (±)-7,8-dimethoxy-N,4-dimethyl-1-[4-(1-methyl-1H-indol-5-yl)phenyl]-4,5-dihydro-3H-2,3-benzodiazepine-3-carboxamide] | 50 nM | 530 nM |
| CNC(=O)N1N=C(c2ccc(-c3cncc4ccccc34)cc2)c2cc(OC)c(OC)cc2CC1C (racemic) [Example 26, (±)-1-[4-(isoquinolin-4-yl)phenyl]-7,8-dimethoxy-N,4-dimethyl-4,5-dihydro-3H-2,3-benzodiazepine-3-carboxamide] | 60 nM | 550 nM |
| CNC(=O)N1N=C(c2ccc(N3C(=O)C4CCC3C4)cc2)c2cc(OC)c(OC)cc2CC1C (stereo not drawn) [Example 1, [1S-(1R*,4S*)]-7,8-Dimethoxy-N,4-dimethyl-1-[4-(3-oxo-2-azabicyclo[2.2.1]hept-2-yl)phenyl]-4,5-dihydro-3H-2,3-benzodiazepine-3-carboxamide] | 30 nM | 140 nM |
| CNC(=O)N1N=C(c2ccc(N3CC4(COC4)C3)cc2)c2cc(OC)c(OC)cc2C[C@H]1C [Example 5.2, (4R)-7,8-dimethoxy-N,4-dimethyl-1-[4-(2-oxa-6-azaspiro[3.3]hept-6-yl)phenyl]-4,5-dihydro-3H-2,3-benzodiazepine-3-carboxamide] | 1360 nM |  |
| CNC(=O)N1N=C(c2ccc(N3CC4(CN(C(=O)OC(C)(C)C)C4)C3)cc2)c2cc(OC)c(OC)cc2C[C@H]1C [Example 8.2, tert-butyl 6-{4-[(4R)-7,8-dimethoxy-4-methyl-3-(melhylcarbamoyl)-4,5-dihydro-3H-2,3-benzodiazepine-1-yl]phenyl}-2,6-diazaspiro[3.3]heptane-2-carboxylate] | 2050 nM |  |
| CNC(=O)N1N=C(c2ccc(N3CCC4(CCCC4)CC3)cc2)c2cc(OC)c(OC)cc2C[C@@H]1C [Example 9.1, (4S)-1-[4-(8-azaspiro[4.5]dec-8-yl)phenyl]-7,8-dimethoxy-N,4-dimethyl-4,5-dihydro-3H-2,3-benzodiazepine-3-carboxamide] | 200 nM |  |
| CNC(=O)N1N=C(c2ccc(N3CCC4(CCCC4)CC3)cc2)c2cc(OC)c(OC)cc2C[C@H]1C [Example 9.2, (4R)-1-[4-(8-azaspiro[4.5]dec-8-yl)phenyl]-7,8-dimethoxy-N,4-dimethyl-4,5-dihydro-3H-2,3-benzodiazepine-3-carboxamide] | > 20000 nM |  |
| CNC(=O)N1N=C(c2ccc(N3CC4(CCS4(=O)=O)C3)cc2)c2cc(OC(F)(F)F)ccc2C[C@H]1C [Example 18.1, (4R)-1-[4-(1,1-dioxido-1-thia-6-azaspiro[3.3]hept-6-yl)phenyl]-N,4-dimethyl-8-(trifluoromethoxy)-4,5-dihydro-3H-2,3-benzodiazepine-3-carboxamide] | 11500 nM |  |
| CNC(=O)N1N=C(c2ccc(N3C[C@@H]4C[C@H]3CO4)cc2)c2cc(OC)c(OC)cc2C[C@@H]1C [Example 35, (4S)-7,8-dimethoxy-N,4-dimethyl-1-{4-[(1S,4S)-2-oxa-5-azabicyclo[2.2.1]hept-5-yl]phenyl}-4,5-dihydro-3H-2,3-benzodiazepine-3-carboxamide] | 4110 nM |  |
